Experimental data reported in ChEMBL document CHEMBL3046950, “Insecticide resistance traits differ among and within host races in Aphis gossypii” (2010).

Key:
Aphis gossypii [1] = assay: Insecticidal activity against Aphis gossypii clone Ivo (cotton aphid) in cotton plant leaf assessed as mortality after 24 hr by leaf disk assay; assay type: functional
Aphis gossypii [2] = assay type: functional
Aphis gossypii [3] = assay type: functional; remark: listed apart in the source
Aphis gossypii [4] = assay: Insecticidal activity against Aphis gossypii clone Burk (cotton aphid) in cotton plant leaf assessed as mortality after 24 hr by leaf disk assay; assay type: functional
Aphis gossypii [5] = assay type: functional; remark: listed apart in the source
Aphis gossypii [6] = assay type: functional; remark: listed apart in the source
Aphis gossypii [7] = assay type: functional; remark: listed apart in the source
Aphis gossypii [8] = assay type: functional; remark: listed apart in the source
Aphis gossypii [9] = assay type: functional, clone C9
Aphis gossypii [10] = assay: Insecticidal activity against Aphis gossypii clone PsP4 (cotton aphid) in pepper plant leaf assessed as mortality after 24 hr by leaf disk assay; assay type: functional
Aphis gossypii [11] = assay type: functional, clone C4
Aphis gossypii [12] = assay type: functional, clone NM1
Aphis gossypii [13] = assay: Insecticidal activity against Aphis gossypii clone Auber (cotton aphid) in egg plant leaf assessed as mortality after 24 hr by leaf disk assay; assay type: functional
Aphis gossypii [14] = assay: Insecticidal activity against Aphis gossypii clone Auber (cotton aphid) in egg plant leaf assessed as mortality after 24 hr by leaf disk assay in presence of S,S,S-tri-n-butyl phosphorotrithioate; assay type: functional
Aphis gossypii [15] = assay: Insecticidal activity against Aphis gossypii clone Auber (cotton aphid) in egg plant leaf assessed as mortality after 24 hr by leaf disk assay in presence of piperonyl butoxide; assay type: functional
Aphis gossypii [16] = assay: Insecticidal activity against Aphis gossypii clone NM1 (cotton aphid) in zucchini or squash leaf assessed as mortality after 24 hr by leaf disk assay in presence of piperonyl butoxide; assay type: functional
Aphis gossypii [17] = assay: Synergist ratio, ratio of LC50 for Aphis gossypii clone Burk (cotton aphid) in presence of piperonyl butoxide to LC50 for Aphis gossypii clone […]; assay type: functional
Aphis gossypii [18] = assay: Insecticidal activity against Aphis gossypii clone NM1 (cotton aphid) in zucchini or squash leaf assessed as mortality after 24 hr by leaf disk assay in presence of S,S,S-tri-n-butyl phosphorotrithioate; assay type: functional
Aphis gossypii [19] = assay: Synergist ratio, ratio of LC50 for Aphis gossypii clone Auber (cotton aphid) in presence of S,S,S-tri-n-butyl phosphorotrithioate to LC50 for Aphis gossypii clone Auber; assay type: functional
Aphis gossypii [20] = assay: Synergist ratio, ratio of LC50 for Aphis gossypii clone Burk (cotton aphid) in presence of S,S,S-tri-n-butyl phosphorotrithioate to LC50 for Aphis gossypii clone Burk; assay type: functional
Aphis gossypii [21] = assay: Synergist ratio, ratio of LC50 for Aphis gossypii clone NM1 (cotton aphid) in presence of S,S,S-tri-n-butyl phosphorotrithioate to LC50 for Aphis gossypii clone NM1; assay type: functional
Aphis gossypii [22] = assay: Insecticidal activity against Aphis gossypii clone Burk (cotton aphid) in egg plant leaf assessed as mortality after 24 hr by leaf disk assay in presence of piperonyl butoxide; assay type: functional
Aphis gossypii [23] = assay: Insecticidal activity against Aphis gossypii clone Burk (cotton aphid) in egg plant leaf assessed as mortality after 24 hr by leaf disk assay in presence of S,S,S-tri-n-butyl phosphorotrithioate; assay type: functional
Aphis gossypii [24] = assay: Synergist ratio, ratio of LC50 for Aphis gossypii clone Auber (cotton aphid) in presence of piperonyl butoxide to LC50 for Aphis gossypii clone Auber; assay type: functional
Aphis gossypii [25] = assay: Synergist ratio, ratio of LC50 for Aphis gossypii clone NM1 (cotton aphid) in presence of piperonyl butoxide to LC50 for Aphis gossypii clone NM1; assay type: functional

Row | SMILES | LC50 (Aphis gossypii [1]) | RatioLC50 (Aphis gossypii [2]) | RatioLC50 (Aphis gossypii [3]) | LC50 (Aphis gossypii [4]) | RatioLC50 (Aphis gossypii [5]) | RatioLC50 (Aphis gossypii [6]) | RatioLC50 (Aphis gossypii [7]) | RatioLC50 (Aphis gossypii [8]) | LC50 (Aphis gossypii [9]) | LC50 (Aphis gossypii [10]) | LC50 (Aphis gossypii [11]) | LC50 (Aphis gossypii [12]) | LC50 (Aphis gossypii [13]) | also measured
1 | C/C(=N\C#N)N(C)Cc1ccc(Cl)nc1 | 4 ugAi/ml | 0.6 | 1.6 | 6.4 ugAi/ml | 2 | 0.9 | 1 | 1.1 | 4.3 ugAi/ml | 2.5 ugAi/ml | 3.7 ugAi/ml | 3.9 ugAi/ml | 7.9 ugAi/ml | –
2 | CC1(C)C(C=C(Cl)Cl)C1C(=O)OC(C#N)c1cccc(Oc2ccccc2)c1 (stereo not drawn) [ALPHA-CYPERMETHRIN] | 7.1 ugAi/ml | 1.4 | 473 | 6763.5 ugAi/ml | 41.2 | 0.4 | 0.5 | 0.5 | 7.2 ugAi/ml | 19.7 ugAi/ml | 6.3 ugAi/ml | 10.9 ugAi/ml | 504 ugAi/ml | LC50 (Aphis gossypii [14]): 8.5 ugAi/ml; LC50 (Aphis gossypii [15]): 23360 ugAi/ml; LC50 (Aphis gossypii [16]): 13.2 ugAi/ml; RatioLC50 (Aphis gossypii [17]): 1; LC50 (Aphis gossypii [18]): 119 ugAi/ml; RatioLC50 (Aphis gossypii [19]): 2.4; RatioLC50 (Aphis gossypii [20]): 1.3; RatioLC50 (Aphis gossypii [21]): 1.3; LC50 (Aphis gossypii [22]): 207 ugAi/ml; LC50 (Aphis gossypii [23]): 18516 ugAi/ml; RatioLC50 (Aphis gossypii [24]): 4.2; RatioLC50 (Aphis gossypii [25]): 0.8
3 | CCCCN(CCCC)SN(C)C(=O)Oc1cccc2c1OC(C)(C)C2 [CARBOSULFAN] | 2.2 ugAi/ml | 0.9 | 0.7 | 3.1 ugAi/ml | 0.9 | 1.2 | 0.5 | 1.2 | 5.6 ugAi/ml | 4.2 ugAi/ml | 5.7 ugAi/ml | 4.6 ugAi/ml | 4 ugAi/ml | –
4 | Clc1ccc(C(c2ccc(Cl)cc2)C(Cl)(Cl)Cl)cc1 [CHLOROPHENOTHANE] | – | – | 148.7 | 30738.4 ugAi/ml | 1.4 | – | – | – | – | – | – | 206.7 ugAi/ml | 291.6 ugAi/ml | –
5 | CCCSP(=O)(OCC)Oc1ccc(Br)cc1Cl (centres undefined) [PROFENOFOS] | 4.3 ugAi/ml | 6.8 | 4.4 | 50 ugAi/ml | 5.3 | 1.3 | 0.4 | 1.5 | 17.2 ugAi/ml | 77.1 ugAi/ml | 15 ugAi/ml | 11.3 ugAi/ml | 59.6 ugAi/ml | –
